We go through 22 compounds from ChEMBL document CHEMBL3991601, “The target landscape of clinical kinase drugs” (Science, 2017).

The target in assay [1] is Glycogen synthase kinase-3 alpha (Homo sapiens, UniProt P49840).
Assay [2] deals with T1, Inhibitor of nuclear factor kappa-B kinase subunit epsilon (Homo sapiens, UniProt Q14164).
T1 sequence (Q14164 whole entry): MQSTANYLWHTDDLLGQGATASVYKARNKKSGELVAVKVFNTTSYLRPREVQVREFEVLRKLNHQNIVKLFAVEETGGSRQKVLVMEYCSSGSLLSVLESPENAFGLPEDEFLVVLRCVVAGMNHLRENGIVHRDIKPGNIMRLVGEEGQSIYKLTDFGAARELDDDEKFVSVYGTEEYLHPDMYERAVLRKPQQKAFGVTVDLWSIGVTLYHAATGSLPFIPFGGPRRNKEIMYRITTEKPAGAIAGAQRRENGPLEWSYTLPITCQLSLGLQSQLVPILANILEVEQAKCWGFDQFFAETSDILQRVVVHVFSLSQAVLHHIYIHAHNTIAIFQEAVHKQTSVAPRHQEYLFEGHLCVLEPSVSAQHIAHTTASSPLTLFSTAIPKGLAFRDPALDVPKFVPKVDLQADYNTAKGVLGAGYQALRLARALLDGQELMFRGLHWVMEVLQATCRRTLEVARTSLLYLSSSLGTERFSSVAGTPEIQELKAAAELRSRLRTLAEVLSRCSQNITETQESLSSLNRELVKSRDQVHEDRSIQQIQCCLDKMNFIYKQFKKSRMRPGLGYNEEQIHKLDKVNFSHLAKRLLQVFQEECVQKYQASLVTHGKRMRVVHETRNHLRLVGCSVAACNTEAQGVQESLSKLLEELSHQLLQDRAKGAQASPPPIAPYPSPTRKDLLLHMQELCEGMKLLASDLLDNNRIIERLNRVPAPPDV

Assay [3] addresses T2, Ribosyldihydronicotinamide dehydrogenase [quinone] (Homo sapiens, UniProt P16083).
T2 sequence (P16083 whole entry): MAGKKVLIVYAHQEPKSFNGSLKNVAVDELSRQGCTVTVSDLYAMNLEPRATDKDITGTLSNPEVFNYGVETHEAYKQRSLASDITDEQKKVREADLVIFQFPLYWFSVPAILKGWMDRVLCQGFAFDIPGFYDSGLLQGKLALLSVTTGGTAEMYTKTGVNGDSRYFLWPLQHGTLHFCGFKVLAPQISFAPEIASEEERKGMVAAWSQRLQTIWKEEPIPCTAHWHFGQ

For assay [4], the target named is Ribosomal protein S6 kinase alpha-5 (Homo sapiens, UniProt O75582).
Chain of Ribosomal protein S6 kinase alpha-5 (O75582 whole entry): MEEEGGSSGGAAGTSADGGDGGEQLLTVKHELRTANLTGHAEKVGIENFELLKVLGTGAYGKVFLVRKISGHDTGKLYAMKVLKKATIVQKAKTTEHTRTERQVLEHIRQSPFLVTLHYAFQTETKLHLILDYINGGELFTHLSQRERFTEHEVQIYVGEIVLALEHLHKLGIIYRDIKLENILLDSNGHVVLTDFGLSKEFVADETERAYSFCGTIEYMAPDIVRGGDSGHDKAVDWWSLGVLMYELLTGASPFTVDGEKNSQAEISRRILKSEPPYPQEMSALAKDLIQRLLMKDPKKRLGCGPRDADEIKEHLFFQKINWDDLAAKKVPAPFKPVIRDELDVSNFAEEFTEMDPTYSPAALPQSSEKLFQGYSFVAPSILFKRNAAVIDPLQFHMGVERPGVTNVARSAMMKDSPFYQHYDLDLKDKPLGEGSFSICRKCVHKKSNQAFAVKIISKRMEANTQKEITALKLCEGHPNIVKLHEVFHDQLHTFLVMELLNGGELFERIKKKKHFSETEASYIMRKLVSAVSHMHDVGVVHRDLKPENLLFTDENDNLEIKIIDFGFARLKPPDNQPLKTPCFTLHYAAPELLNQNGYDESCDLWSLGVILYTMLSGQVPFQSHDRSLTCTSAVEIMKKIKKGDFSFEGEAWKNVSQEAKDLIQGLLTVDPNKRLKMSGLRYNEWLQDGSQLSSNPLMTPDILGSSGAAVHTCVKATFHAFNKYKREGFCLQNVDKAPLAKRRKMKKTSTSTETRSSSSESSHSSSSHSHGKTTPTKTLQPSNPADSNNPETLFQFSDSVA
Another assay addresses T3, Ephrin type-B receptor 2 (Homo sapiens, UniProt P29323).
T3 sequence (P29323 whole entry): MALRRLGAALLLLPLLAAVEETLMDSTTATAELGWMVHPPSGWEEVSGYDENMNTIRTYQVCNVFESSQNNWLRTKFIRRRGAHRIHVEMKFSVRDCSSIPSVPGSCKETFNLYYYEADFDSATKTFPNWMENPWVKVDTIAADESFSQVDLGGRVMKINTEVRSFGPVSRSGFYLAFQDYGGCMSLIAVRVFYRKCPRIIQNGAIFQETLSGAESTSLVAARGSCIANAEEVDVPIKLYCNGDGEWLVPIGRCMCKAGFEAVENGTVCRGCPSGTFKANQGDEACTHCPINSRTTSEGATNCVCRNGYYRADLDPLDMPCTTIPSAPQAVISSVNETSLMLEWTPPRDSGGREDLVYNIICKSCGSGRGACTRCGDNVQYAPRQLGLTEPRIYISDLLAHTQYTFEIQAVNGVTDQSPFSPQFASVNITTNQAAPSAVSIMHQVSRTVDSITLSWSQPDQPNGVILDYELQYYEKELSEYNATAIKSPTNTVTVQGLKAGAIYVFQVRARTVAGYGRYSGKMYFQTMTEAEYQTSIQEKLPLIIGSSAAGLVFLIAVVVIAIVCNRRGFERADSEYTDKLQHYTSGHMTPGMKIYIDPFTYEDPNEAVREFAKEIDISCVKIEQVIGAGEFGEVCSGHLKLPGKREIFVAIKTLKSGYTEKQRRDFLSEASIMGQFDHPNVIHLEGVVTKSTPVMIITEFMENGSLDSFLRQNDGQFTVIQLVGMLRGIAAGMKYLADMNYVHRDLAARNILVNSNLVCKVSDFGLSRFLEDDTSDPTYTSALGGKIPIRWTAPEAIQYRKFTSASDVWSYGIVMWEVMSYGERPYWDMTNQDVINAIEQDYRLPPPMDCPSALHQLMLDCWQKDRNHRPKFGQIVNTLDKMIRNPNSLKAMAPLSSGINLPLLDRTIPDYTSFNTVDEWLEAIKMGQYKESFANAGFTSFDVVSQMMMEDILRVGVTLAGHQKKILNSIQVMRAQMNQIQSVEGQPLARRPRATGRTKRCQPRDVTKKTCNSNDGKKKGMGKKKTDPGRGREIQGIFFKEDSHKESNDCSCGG

Assay [5] addresses T4, Calcium/calmodulin-dependent protein kinase type IV (Homo sapiens, UniProt Q16566).
T4 sequence (Q16566 whole entry): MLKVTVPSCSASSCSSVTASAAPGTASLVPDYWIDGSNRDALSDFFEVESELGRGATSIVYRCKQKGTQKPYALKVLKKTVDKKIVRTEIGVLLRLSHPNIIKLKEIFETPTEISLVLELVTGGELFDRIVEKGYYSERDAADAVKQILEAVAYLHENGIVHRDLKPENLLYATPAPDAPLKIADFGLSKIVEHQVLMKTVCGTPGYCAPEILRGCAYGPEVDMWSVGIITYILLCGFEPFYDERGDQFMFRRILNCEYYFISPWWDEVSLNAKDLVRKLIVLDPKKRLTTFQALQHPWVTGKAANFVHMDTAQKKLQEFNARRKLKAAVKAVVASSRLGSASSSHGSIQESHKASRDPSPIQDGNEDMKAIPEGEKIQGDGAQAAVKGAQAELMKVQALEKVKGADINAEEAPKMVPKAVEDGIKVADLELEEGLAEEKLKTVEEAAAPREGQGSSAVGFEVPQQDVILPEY

The source made the active and inactive calls. Cut-off read from the data, not from the text of the source: actives have a measured Kd and inactives only a lower limit. Where only a bound is given, the exact number is not on record here.
Note: in the data inactive means no Kd found up to 30 µM.

Chain of Glycogen synthase kinase-3 alpha (P49840 whole entry): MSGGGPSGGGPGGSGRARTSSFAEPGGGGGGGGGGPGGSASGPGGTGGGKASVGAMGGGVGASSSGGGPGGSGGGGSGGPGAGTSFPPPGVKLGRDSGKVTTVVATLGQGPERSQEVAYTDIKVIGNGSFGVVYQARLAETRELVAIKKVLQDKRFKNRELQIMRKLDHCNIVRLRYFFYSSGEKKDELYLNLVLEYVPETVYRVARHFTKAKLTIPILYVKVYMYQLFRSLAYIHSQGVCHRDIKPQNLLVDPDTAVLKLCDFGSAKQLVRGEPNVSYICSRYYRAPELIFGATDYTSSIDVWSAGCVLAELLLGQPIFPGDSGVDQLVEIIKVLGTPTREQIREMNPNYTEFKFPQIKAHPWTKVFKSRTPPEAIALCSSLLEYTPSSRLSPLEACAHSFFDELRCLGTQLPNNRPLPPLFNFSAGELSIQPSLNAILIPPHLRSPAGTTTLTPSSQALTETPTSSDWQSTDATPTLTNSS

The Kd is a measure of binding affinity in units of concentration. On to `S=C(NCc1ccc2c(c1)OCO2)N1CCN(c2ncnc3c2oc2ccccc23)CC1` [AMUVATINIB], for which the Kd (in assay [1]; in assay [2]; in assay [3]; in assay [4]; at Ephrin type-B receptor 2) was > 30 µM (inactive) in each case.
Consider `O[C@H]1CC[C@H](Nc2ncc3nc(Nc4c(F)cc(F)cc4F)n([C@H]4CCOC4)c3n2)CC1` [TANZISERTIB], for which the Kd (in assay [1]; in assay [2]; in assay [3]; in assay [5]; in assay [4]; on Ephrin type-B receptor 2) was > 30 µM (inactive) each time.
With `COc1cccc2cc(-c3nc([C@H]4CC[C@H](C(=O)O)CC4)n4ncnc(N)c34)[nH]c12` [OSI-027], the Kd in assay [1] is > 30 µM (inactive); in assay [2], > 30 µM (inactive); in assay [3], 1.39 µM (active); in assay [5] it was > 30 µM (inactive); in assay [4], > 30 µM (inactive); at Ephrin type-B receptor 2, > 30 µM (inactive).
For the compound `Cn1c(=O)n(-c2ccc(C(C)(C)C#N)cc2)c2c3cc(-c4cnc5ccccc5c4)ccc3ncc21` [DACTOLISIB], the Kd (in assay [3]; in assay [5]; in assay [4]; on Ephrin type-B receptor 2) was > 30 µM (inactive) throughout.
`O=c1[nH]c([C@@H]2CCCN2)nc2c1oc1ccc(Cl)cc12`: the Kd (in assay [1]; in assay [2]; in assay [3]; in assay [5]; in assay [4]; at Ephrin type-B receptor 2) was > 30 µM (inactive) throughout.
On to `O=C(O)c1ccc2c(c1)nc(Nc1cccc(Cl)c1)c1ccncc12` [SILMITASERTIB], for which the dissociation constant Kd in assay [1] is 17.3 µM (active); in assay [2], > 30 µM (inactive); in assay [3] it was > 30 µM (inactive); in assay [5], > 30 µM (inactive); in assay [4], > 30 µM (inactive); on Ephrin type-B receptor 2, > 30 µM (inactive).
`C[C@@]1(C(=O)Nc2ccc(F)nc2)CCCN1c1nc(Nc2cc(C3CC3)n[nH]2)c2cccn2n1` [BMS-754807]: in assay [3], the Kd was > 30 µM (inactive).
As for `c1cc(OCCN2CCCCC2)cc(-c2n[nH]c3ccc(-c4nc[nH]n4)cc23)c1` [CC-401], the Kd was > 30 µM (inactive) in assay [1]; > 30 µM (inactive) in assay [2]; 1.41 µM (active) in assay [3]; > 30 µM (inactive) in assay [5]; > 30 µM (inactive) in assay [4]; > 30 µM (inactive) at Ephrin type-B receptor 2.
Turning to `COc1cc2ncnc(Nc3ccc(O)cc3)c2cc1OC` [WHI-P131], the Kd (in assay [1]; in assay [2]; in assay [3]; in assay [5]; in assay [4]; at Ephrin type-B receptor 2) was > 30 µM (inactive) each time.
Take `O=C(Nc1ccc(OC(F)(F)F)cc1)c1sccc1NCc1ccnc2ccccc12` [OSI-930]: the Kd (in assay [1]; in assay [2]; in assay [3]; in assay [5]; in assay [4]; at Ephrin type-B receptor 2) was > 30 µM (inactive) each time.
Regarding `CN(c1ncccc1CNc1nc(Nc2ccc3c(c2)CC(=O)N3)ncc1C(F)(F)F)S(C)(=O)=O` [PF-00562271], the dissociation constant (Kd) in assay [1] was 0.845 µM (active); in assay [3], > 30 µM (inactive); in assay [5], > 30 µM (inactive); on Ephrin type-B receptor 2, > 30 µM (inactive).
`COc1cc2c(Oc3ccc4[nH]c(C)cc4c3F)ncnc2cc1OCCCN1CCCC1` [CEDIRANIB]: the Kd in assay [3] is > 30 µM (inactive).
`Cn1cnc2c(F)c(Nc3ccc(Br)cc3Cl)c(C(=O)NOCCO)cc21` [SELUMETINIB]: the Kd in assay [3] was > 30 µM (inactive).
On the same count and under the same terms, the value for `COc1cc2c(N3CCN(C(=O)Nc4ccc(OC(C)C)cc4)CC3)ncnc2cc1OCCCN1CCCCC1` [TANDUTINIB] was > 30 µM (inactive).
With `CCN(CCCOc1ccc2c(Nc3cc(CC(=O)Nc4cccc(F)c4)n[nH]3)ncnc2c1)CCOP(=O)(O)O` [BARASERTIB], the Kd (in assay [3]; in assay [5]; in assay [4]; at Ephrin type-B receptor 2) was > 30 µM (inactive) each time.
As for `CC1(C)CNc2cc(NC(=O)c3cccnc3NCc3ccncc3)ccc21` [MOTESANIB], the Kd in assay [3] is > 30 µM (inactive).
On to `C=CCn1c(=O)c2cnc(Nc3ccc(N4CCN(C)CC4)cc3)nc2n1-c1cccc(C(C)(C)O)n1` [ADAVOSERTIB], for which the Kd (in assay [3]; in assay [5]; in assay [4]; at Ephrin type-B receptor 2) was > 30 µM (inactive) in each case.
On to `CN(C)C/C=C/C(=O)Nc1cc2c(Nc3ccc(F)c(Cl)c3)ncnc2cc1O[C@H]1CCOC1` [AFATINIB], for which the Kd in assay [3] is > 30 µM (inactive).
Turning to `CCOc1ccn(-c2ccc(F)cc2)c(=O)c1C(=O)Nc1ccc(Oc2ccnc(N)c2Cl)c(F)c1` [BMS-777607], the Kd (in assay [1]; in assay [3]; in assay [5]; in assay [4]; at Ephrin type-B receptor 2) was > 30 µM (inactive) throughout.
With `O=S(=O)(c1cccc2cnccc12)N1CCCNCC1` [FASUDIL], the dissociation constant (Kd) is 2.45 µM (active) in assay [3], > 30 µM (inactive) in assay [5] and > 30 µM (inactive) on Ephrin type-B receptor 2.
For the compound `C[C@]1(O)C[C@@H](c2nc(-c3ccc4ccc(-c5ccccc5)nc4c3)c3c(N)nccn32)C1` [LINSITINIB], the Kd (in assay [2]; in assay [3]; in assay [5]; on Ephrin type-B receptor 2) was > 30 µM (inactive) throughout.
On to `CC1(COc2ccc3c(c2)ncn3-c2ccc3cccc(N4CCC(N)CC4)c3n2)COC1` [CRENOLANIB], for which the Kd (in assay [1]; in assay [2]; in assay [5]; in assay [4]; on Ephrin type-B receptor 2) was > 30 µM (inactive) each time.
